Values quoted from earlier work, collected in patent publication US20190105332A1, “METHODS OF TREATING PROSTATE CANCER” (Janssen Oncology, Inc., priority 2017, published 2019).
Read-outs that look alike come from different tables or passages of the source.

Key:
[1] = biological target: T1, CYP2D6 (Homo sapiens, UniProt P10635)
T1 construct: from tissue; host or cells: in vivo, trial participants (endogenous hepatic enzyme)

[2] = biological target: T2, CYP1A2 (Homo sapiens, UniProt P05177); settings: abiraterone acetate 1,000 mg daily plus prednisone 5 mg twice daily; single 100 mg theophylline
T2 sequence (P05177 1-516): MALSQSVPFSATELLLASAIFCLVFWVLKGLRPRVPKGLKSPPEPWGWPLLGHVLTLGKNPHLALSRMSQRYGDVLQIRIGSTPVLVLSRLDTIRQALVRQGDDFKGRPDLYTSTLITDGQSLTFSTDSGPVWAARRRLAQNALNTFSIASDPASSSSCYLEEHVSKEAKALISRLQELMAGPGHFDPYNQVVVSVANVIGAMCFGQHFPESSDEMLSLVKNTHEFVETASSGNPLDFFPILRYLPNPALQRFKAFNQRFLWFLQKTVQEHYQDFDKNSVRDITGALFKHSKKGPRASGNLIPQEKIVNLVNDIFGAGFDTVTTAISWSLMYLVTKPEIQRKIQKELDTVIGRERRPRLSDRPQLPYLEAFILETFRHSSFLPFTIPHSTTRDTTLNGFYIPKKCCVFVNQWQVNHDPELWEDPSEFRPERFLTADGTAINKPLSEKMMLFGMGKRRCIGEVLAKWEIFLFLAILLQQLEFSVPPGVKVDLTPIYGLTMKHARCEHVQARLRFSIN

[3] = biological target: P-glycoprotein (P-gp) (Homo sapiens, UniProt P08183); settings: in vitro
[4] = not given; remark: listed apart in the source
[5] = 6-month study
[6] = tested on: primary human lymphocytes
[7] = rat micronucleus assay
[8] = not given; remark: listed apart in the source
[9] = not given; remark: listed apart in the source
[10] = not given; remark: listed apart in the source
[11] = not given; remark: listed apart in the source
[12] = not given; remark: listed apart in the source
[13] = not given; remark: listed apart in the source
[14] = biological target: T3, CYP2C8 (Homo sapiens, UniProt P10632); parameters: from tissue; host or cells: in vivo, healthy human subjects (endogenous enzyme); settings: healthy subjects; single dose of 1,000 mg abiraterone acetate
T3 sequence (P10632 1-490): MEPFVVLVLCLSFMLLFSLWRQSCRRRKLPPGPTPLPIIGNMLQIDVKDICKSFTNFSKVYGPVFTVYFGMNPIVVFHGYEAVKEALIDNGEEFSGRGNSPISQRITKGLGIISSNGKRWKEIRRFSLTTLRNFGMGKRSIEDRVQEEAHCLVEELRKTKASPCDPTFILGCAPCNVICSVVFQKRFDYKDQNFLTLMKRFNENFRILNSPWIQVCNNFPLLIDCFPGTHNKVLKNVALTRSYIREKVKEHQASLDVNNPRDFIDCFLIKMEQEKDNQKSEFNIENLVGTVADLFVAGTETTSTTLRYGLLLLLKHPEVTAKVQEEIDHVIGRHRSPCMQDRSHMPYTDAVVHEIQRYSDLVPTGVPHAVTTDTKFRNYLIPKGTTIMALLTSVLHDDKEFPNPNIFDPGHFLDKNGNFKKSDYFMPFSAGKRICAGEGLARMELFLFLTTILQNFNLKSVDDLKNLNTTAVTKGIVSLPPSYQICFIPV

[15] = abiraterone acetate 1,000 mg daily and prednisone 5 mg twice daily
[16] = oral, 2 weeks until day 7 of pregnancy

T1 sequence (P10635 whole entry): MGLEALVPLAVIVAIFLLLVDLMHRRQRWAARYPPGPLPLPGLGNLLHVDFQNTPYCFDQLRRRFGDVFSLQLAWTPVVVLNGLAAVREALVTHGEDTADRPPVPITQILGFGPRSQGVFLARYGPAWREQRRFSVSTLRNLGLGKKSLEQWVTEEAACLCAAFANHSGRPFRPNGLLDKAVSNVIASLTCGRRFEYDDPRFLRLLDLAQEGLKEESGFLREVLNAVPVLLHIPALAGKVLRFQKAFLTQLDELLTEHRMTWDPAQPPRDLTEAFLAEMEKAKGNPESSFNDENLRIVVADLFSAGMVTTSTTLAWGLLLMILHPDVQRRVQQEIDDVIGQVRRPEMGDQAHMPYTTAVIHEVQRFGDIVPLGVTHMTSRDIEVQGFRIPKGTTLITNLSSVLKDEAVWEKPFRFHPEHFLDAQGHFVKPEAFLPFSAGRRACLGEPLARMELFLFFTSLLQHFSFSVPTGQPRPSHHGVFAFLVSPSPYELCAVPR
Sequence of P-glycoprotein (P-gp) (P08183 whole entry): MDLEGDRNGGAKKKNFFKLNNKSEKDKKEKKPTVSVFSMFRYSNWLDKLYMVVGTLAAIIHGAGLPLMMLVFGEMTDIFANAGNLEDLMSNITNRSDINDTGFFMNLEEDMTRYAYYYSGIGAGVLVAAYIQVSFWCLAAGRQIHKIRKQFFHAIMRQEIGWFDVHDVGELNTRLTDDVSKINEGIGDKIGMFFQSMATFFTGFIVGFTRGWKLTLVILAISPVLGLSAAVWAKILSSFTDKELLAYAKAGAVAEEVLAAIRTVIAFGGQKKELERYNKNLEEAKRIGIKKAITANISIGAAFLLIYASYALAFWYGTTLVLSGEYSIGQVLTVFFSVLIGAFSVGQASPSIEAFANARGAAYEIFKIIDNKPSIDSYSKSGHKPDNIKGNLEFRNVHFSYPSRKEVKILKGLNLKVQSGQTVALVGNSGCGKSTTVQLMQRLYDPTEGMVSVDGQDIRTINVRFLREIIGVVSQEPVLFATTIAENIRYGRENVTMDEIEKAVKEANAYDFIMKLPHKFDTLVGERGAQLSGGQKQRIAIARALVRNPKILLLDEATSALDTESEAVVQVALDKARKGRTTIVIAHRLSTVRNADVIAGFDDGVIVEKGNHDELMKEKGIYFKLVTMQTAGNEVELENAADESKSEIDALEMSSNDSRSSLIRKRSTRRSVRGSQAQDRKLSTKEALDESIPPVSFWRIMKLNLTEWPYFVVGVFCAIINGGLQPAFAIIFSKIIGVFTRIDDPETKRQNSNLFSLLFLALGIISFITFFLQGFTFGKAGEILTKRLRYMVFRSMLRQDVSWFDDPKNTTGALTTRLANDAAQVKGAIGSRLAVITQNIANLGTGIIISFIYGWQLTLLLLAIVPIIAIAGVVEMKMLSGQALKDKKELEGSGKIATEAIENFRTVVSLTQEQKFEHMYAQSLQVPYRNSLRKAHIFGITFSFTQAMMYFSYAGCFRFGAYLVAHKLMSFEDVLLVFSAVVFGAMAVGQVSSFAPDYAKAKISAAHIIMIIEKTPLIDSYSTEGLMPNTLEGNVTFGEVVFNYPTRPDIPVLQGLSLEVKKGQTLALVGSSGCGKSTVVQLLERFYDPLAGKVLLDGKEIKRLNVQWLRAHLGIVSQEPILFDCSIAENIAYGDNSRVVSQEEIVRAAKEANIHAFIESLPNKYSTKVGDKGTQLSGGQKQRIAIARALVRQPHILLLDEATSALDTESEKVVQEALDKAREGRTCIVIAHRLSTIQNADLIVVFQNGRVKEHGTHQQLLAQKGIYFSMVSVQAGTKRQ

SMILES: CC(=O)O[C@H]1CC[C@@]2(C)C(=CC[C@@H]3[C@@H]2CC[C@]2(C)C(c4cccnc4)=CC[C@@H]32)C1 [abiraterone acetate, (3β)-17-(3-pyridinyl) androsta-5,16-dien-3-yl acetate]
- increase in AUC of dextromethorphan (CYP2D6 substrate) [1, 15]: 2.9 fold
- increase in Cmax of dextromethorphan (CYP2D6 substrate) [1, 15]: 2.8 fold
- increase in AUC for dextrorphan ([1]; abiraterone acetate 1,000 mg daily plus prednisone 5 mg twice daily): approximately 1.3 fold
- systemic exposure of theophylline (CYP1A2 substrate) [2]: no increase
- inhibition of P-gp [3]: inhibitor
- substrate of P-glycoprotein (P-gp) ([3]; clinically relevant concentrations): not substrates
- octanol-water partition coefficient (Log P): 5.12
- pKa of the aromatic nitrogen: 5.19
- solubility in water: practically insoluble
- carcinogenicity in female rats ([4]; exposure levels up to 0.8 times the human clinical exposure based on AUC): not carcinogenic
- carcinogenicity in male rats ([4]; oral 5, 15, and 50 mg/kg/day): increased the combined incidence of interstitial, cell adenomas and carcinomas in the testes at all dose levels tested
- carcinogenicity [5]: not carcinogenic
- clastogenicity in vitro [6]: not mutagenic in an in vitro microbial mutagenesis (Ames) assay or clastogenic
- clastogenicity in vivo [7]: not mutagenic in an in vitro microbial mutagenesis (Ames) assay or clastogenic
- exposure at which a reduction in circulating testosterone levels occurred ([8]; 13- and 26-week studies): approximately one half the human clinical exposure
- doses with dose-dependent increase in cataracts ([8]; daily oral, 26 weeks, similar to the human clinical exposure based on AUC): ≥ 50 mg/kg/day
- doses with atrophy, aspermia/hypospermia, and hyperplasia in the reproductive system ([8]; male rats, 13- and 26-weeks): ≥ 50 mg/kg/day
- exposure at which a reduction in circulating testosterone levels occurred ([9]; 13- and 39-week studies): approximately one half the human clinical exposure
- cataracts ([9]; 39-week, daily oral, 2 times greater than the clinical exposure based on AUC): no cataracts were observed
- doses with atrophy, aspermia/hypospermia, and hyperplasia in the reproductive system ([9]; 39-weeks): ≥ 250 mg/kg/day
- 30 mg/kg/day in rats relative to the recommended dose of 1,000 mg/day ([10]; based on body surface area): approximately 0.3 times
- doses with reduced reproductive organ weights, sperm counts, sperm motility, altered sperm morphology and decreased fertility ([10]; dosed orally for 4 weeks): ≥ 30 mg/kg/day
- time after last administration at which effects on male rats were reversible ([10]; rat, in vivo): 16 weeks
- dose with pre-implantation loss [11, 16]: 300 mg/kg/day
- doses with increased incidence of irregular or extended estrous cycles [11, 16]: ≥ 30 mg/kg/day
- mating, fertility, and litter parameters ([11]; rat, in vivo): no differences
- time after last administration at which effects on female rats were reversible ([11]; rat, in vivo): 4 weeks
- conversion to abiraterone ([12]; likely through esterase activity): not CYP mediated
- compound present in feces, share of the administered dose ([12]; oral 14C-abiraterone acetate): approximately 55%
- radioactive dose recovered in feces ([12]; oral administration): approximately 88%
- radioactive dose recovered in urine ([12]; oral administration): approximately 5%
- systemic exposure (AUC) relative to the AUC in patients ([13]; 100 mg/kg/day): ~0.3 times
- dose with decreased fetal body weight ([13]; oral, gestational days 6-17): 100 mg/kg/day
- doses that caused maternal toxicity ([13]; oral, gestational days 6-17): ≥ 10 mg/kg/day
- doses with decreased fetal ano-genital distance ([13]; oral, gestational days 6-17): ≥ 30 mg/kg/day
- doses with embryo-fetal lethality, fetal developmental delay and urogenital effects ([13]; rat, in vivo, po): ≥ 10 mg/kg/day
- increase in AUC of pioglitazone (CYP2C8 substrate) [14]: 46%
